Here are results for four substances from article PMC6212778, “Site-specific amino acid substitution in dodecameric peptides determines the stability and unfolding of c-MYC quadruplex promoting apoptosis in cancer cells” (Nucleic Acids Research, 2018).

Experiment [1] has as its system Nucleolin at c-MYC-NHE III1 in MCF-7 cells. Kind of experiment: ChIP, Nucleolin occupancy at c-MYC-NHE III1. The following applies: MCF-7, 24 h, ChIP-qPCR versus IgG control. It is filed as cell-based, human. The procedure: (§1) Chromatin immunoprecipitation studies are conducted to monitor the promoter occupancies of different transcription factors (Sp1, NM23-H2 and Nucleolin) and RNA polymerase II (RNAPII) on the region encompassing c-MYC-NHE III1 ([69]). We have grown MCF-7 cells in 10-cm^2 culture flask at a density of 1 × 10^6 cells per well and treated with the synthetic peptides (FK13, KR12A, KR12B, and KR12C) for 24 hours. Cells are cross-linked with 1% formaldehyde at room temperature for 10 min and the reaction is stopped by 0.125 M glycine at room temperature for 10 min. Fixed cells are lysed and sonicated to yield DNA fragments of 200–500 bp. ChIP-grade antibodies (NM23-H2 (L-15) Antibody (sc-14790, Santa Cruz), and Anti-Nucleolin antibody [4E2]-ChIP Grade (Abcam)), Anti Sp1 antibody (Sigma), and Rpb1 (RNAPII subunit b1) CTD (C-terminal domain) 4H8 antibody are added to the sonicated chromatin and incubated overnight at 4°C. Then, 10 μl protein A magnetic beads (Dynal, Invitrogen), previously washed in RIPA buffer are added to the samples and bead–protein complexes are washed thrice with RIPA buffer and twice with TE buffer. The genomic DNA is eluted for 2 h at 68°C in complete elution Buffer (20 mM Tris, pH 7.5, 5 mM EDTA, 50 mM NaCl, 1% SDS and 50 μg/ml proteinase K) and further combined with the DNA eluted from second elution for 10 min at 68°C in 100 μl of elution buffer (20 mM Tris, pH 7.5, 5 mM EDTA and 50 mM NaCl). ChIP-isolated DNA is purified using MinElute Purification kit (Qiagen) and is amplified by PCR (Polymerase Chain Reaction) reactions using forward and reverse primers ([70]) (Supplementary Table S4) specific to the quadruplex-enriched regions at c-MYC promoter and Phusion® High-Fidelity PCR Kit (NEB). Anti-rabbit IgG is employed for mock immunoprecipitation (Negative control).
Background: In qPCR the cycle at which signal appears reflects the starting amount.

In experiment [2] the test system is NM23-H2 at c-MYC-NHE III1 in MCF-7 cells. As to the kind of experiment: ChIP, NM23-H2 occupancy at c-MYC-NHE III1. It counts as cell-based, human. To be noted: MCF-7, 24 h, ChIP-qPCR versus IgG control. As to the method:
as §1

The test system of experiment [3] is c-MYC promoter (Pu27-GQ) in MCF-7 cells. Kind of experiment: Dual-luciferase assay, c-MYC promoter with Pu27-GQ. It is filed as cell-based, human. The following applies: for c-MYC promoter activity, fold repression: MCF-7, 24 h peptide treatment, 60 μM, Renilla/firefly normalised; for c-MYC promoter activity: MCF-7, 24 h, peptide 0–60 μM. The procedure: (§2) MCF-7 cells are sub-cultured into 24-well microtiter plates at a cell density of 1 × 10^5 cells/well. Reporter constructs (c-MYC, BCL-2, KRAS and VEGF-A) (500 ng) with and/or without the G-quadruplex scaffolds triggering the expression of Renilla luciferase are co-transfected with 50 ng of pGL3-control vectors (Promega) (used as internal control), encoding firefly luciferase into MCF-7 cells using Lipofectamine® 3000 transfection reagent (Thermo-Fisher Scientific) following manufacturer's recommendations (Supplementary information Section 1). Twenty four hours post-transfection, cells are treated with peptides (FK13, KR12A, KR12B, KR12C, KR12D and KR12E) at an increasing concentration gradient.
(§3) Dual-luciferase assays are performed to examine the intracellular selectivity of peptides for c-MYC quadruplex isomers (Pu27, Myc22 and Pu19) over other oncogenic quadruplexes (BCL-2, VEGF-A and KRAS) of different topologies. The role of peptide-quadruplex complex in oncogene promoter activation is investigated in contrast to the GQ-null promoter constructs into MCF-7 cells ([67]). After 24 h of peptide treatment, cells are washed and lysed into 100 μl 1× Passive lysis buffer (PLB) for 15 min at room temperature. Renilla and firefly Luciferase activities in 25 μl lysate are quantified by Dual-Luciferase® reporter assay system (Promega) as per manufacturer's recommendations. Renilla luciferase enzyme activity is normalized to that of the firefly luciferase activity and luminescence of the peptide-treated samples are normalized to the untreated ones, which yield the fold induction values for Renilla activities by different quadruplex structures in presence and absence of synthetic peptides. Luminescence of each sample is detected in GloMax® 20/20 Single-Tube Luminometer (Promega) in triplicates and averaged from three independent experiments.

The test system of experiment [4] is Sp1 at c-MYC-NHE III1 in MCF-7 cells. As to the kind of experiment: ChIP, Sp1 occupancy at c-MYC-NHE III1. It counts as cell-based, human. The following applies: MCF-7, 24 h, ChIP-qPCR versus IgG control. The procedure: as §1
Experiment [5] deals with native c-MYC quadruplex (Pu27). Kind of experiment: ITC of peptides with native c-MYC quadruplex Pu27 in potassium phosphate buffer. The following applies: for K A / pKd / ΔG (binding energy) / ΔH (binding enthalpy) / ΔS (entropy): 25°C, 20 μM peptide in cell, 500 μM Pu27 in syringe, 10 mM potassium phosphate, 0.1 M KCl, pH 7.0, one-site model. It is filed as binding, human. The procedure:
The putative wild-type and truncated G-quadruplex forming sequences (Table 2 and Supplementary Table S1), located at the upstream of c-MYC promoter are reconstituted in 10 mM Potassium Phosphate buffer (pH 7.0) having 100 mM potassium chloride (KCl). The sequences are allowed to evolve G-quadruplex structure in solution by annealing at 95°C followed by gradual cooling. (Supplementary information Section 1).
Thermodynamic attributes of the interaction profiles between peptides and putative quadruplex sequences are analysed by ITC using iTC200 Microcalorimeter at 25°C. Synthetic peptides (FK13, KR12A, KR12B, KR12C, KR12D and KR12E) are diluted to 20 μM in 10 mM Potassium phosphate buffer (10 mM K2HPO4 + 10 mM KH2PO4) containing 0.1 M KCl (pH 7.0). Syringe is filled with 500 μM quadruplex sequences present in the upstream promoter regions of c-MYC (Pu27, Pu19, and Myc22), BCL-2 (Pu30), VEGF-A (Pu22), KRAS (Pu32) oncogenes, and telomere (Tel26) dissolved into the same buffer. We also carried out the experiment for KR12C and Pu27 using MCF-7 nuclear extract as the solvent to mimic the cellular microenvironment and impart macromolecular crowding during binding events. Same concentration of oligonucleotides is injected into the identical buffer or in nuclear extract without peptides to normalize the heat of dilution of peptide-quadruplex association to that of the control before curve-fitting. Oligonucleotides are injected 20 times at an interval of 150 s into the calorimeter cell having the peptides to achieve binding saturation. The heat of reaction per injection (μcal/s) is determined by integration of the peak areas using in-built Origin 7.0 software that provides the best-fit values of enthalpy (ΔH) and entropy (ΔS) of binding, the binding stoichiometry (n), and dissociation constant (Kd) (Supplementary Tables S5(a), S5(b) and S5(c)). Data points are further simulated with ‘one-site’ binding modes (Supplementary information Section 1).

Experiment [6] has as its system KRAS promoter (KRAS-GQ) in MCF-7 cells. As to the kind of experiment: Dual-luciferase assay, KRAS promoter with KRAS-GQ. It counts as cell-based, human. The following applies: MCF-7, 24 h; for KRAS promoter activity: peptide 0–60 μM. The procedure:
as §2, §3

Setting [7] is: potassium phosphate buffer pH 7.0.

pKd: −log10 of the molar value.

Consider N – FKRIVQRIKDFLR – C [FK13], for which the “Nucleolin occupancy at c-MYC-NHE III1” value in experiment [1] is listed as “no role”. For the same substance, the “NM23-H2 occupancy at c-MYC-NHE III1” value in experiment [2] is “no role”. For the same substance, the “c-MYC promoter activity, fold repression” value in experiment [3] is listed as ~2 fold. For the same substance, the “Sp1 occupancy at c-MYC-NHE III1” value in experiment [4] was “no role”. Also, in experiment [5], the “K A” value amounted to 28900 M⁻¹, the pKd was 4.46, the “ΔG (binding energy)” value is -5.982 kcal/mol and the “ΔH (binding enthalpy)” value was -77.8 kcal/mol. The “ΔS (entropy)” value in experiment [5] is −241 cal/mol/deg.

On to N – KRIVKLIKKWLR – C [KR12C], for which the “Nucleolin occupancy at c-MYC-NHE III1” value in experiment [1] is “depleted”. In addition, the “NM23-H2 occupancy at c-MYC-NHE III1” value in experiment [2] is “depleted”. In addition, the “KRAS promoter activity” value in experiment [6] is “no significant impact”. Moreover, in experiment [3], the “c-MYC promoter activity” value is “selectively attenuated”. The “Sp1 occupancy at c-MYC-NHE III1” value in experiment [4] is reported as “depleted”. In addition, in experiment [5], the “K A” value was 124000 M⁻¹, the pKd is 5.09, the “ΔG (binding energy)” value was -6.974 kcal/mol and the “ΔH (binding enthalpy)” value was -47.8 kcal/mol. The “ΔS (entropy)” value in experiment [5] is −137 cal/mol/deg. In experiment [5] (setting [7]), the “fold higher binding ΔH for Pu27 association compared to KR12B and KR12D” value is listed as ~2 fold; the “times higher affinity for Pu27 compared to KR12B and KR12D” value is ~5 times.

Take “N – KRIVKRIKKWLR – C [KR12B, dodecameric mutant peptide derived from FK13 / LL37]”: in experiment [1], the “Nucleolin occupancy at c-MYC-NHE III1” value is “depleted the abundance”. For the same substance, the “NM23-H2 occupancy at c-MYC-NHE III1” value in experiment [2] was “depleted the abundance”. In addition, the “KRAS promoter activity” value in experiment [6] is on record as “inverse regulation”. The “c-MYC promoter activity” value in experiment [3] was “selectively attenuated”. The “Sp1 occupancy at c-MYC-NHE III1” value in experiment [4] is reported as “no role in Sp1 occupancy”. For the same substance, in experiment [5], the “K A” value is 26800 M⁻¹, the pKd was 4.43, the “ΔG (binding energy)” value was -6.18 kcal/mol and the “ΔH (binding enthalpy)” value is -137.3 kcal/mol. Moreover, the “ΔS (entropy)” value in experiment [5] is listed as −440 cal/mol/deg.

As to “N – KRIVQRIKKWLR – C [KR12A, dodecameric mutant peptide derived from FK13 / LL37]”, the “Nucleolin occupancy at c-MYC-NHE III1” value in experiment [1] is reported as “did not significantly affect”. In addition, the “NM23-H2 occupancy at c-MYC-NHE III1” value in experiment [2] is “slightly enriched”. For the same substance, in experiment [6] (at higher concentration), the “KRAS promoter activity, fold inhibition” value is ~2.5 fold. For the same substance, the “c-MYC promoter activity, fold repression” value in experiment [3] was ~2 fold. Besides, the “Sp1 occupancy at c-MYC-NHE III1” value in experiment [4] is given as “slightly enriched”. Moreover, in experiment [5], the “K A” value worked out at 16200 M⁻¹, the pKd was 4.21, the “ΔG (binding energy)” value was -6.44 kcal/mol and the “ΔH (binding enthalpy)” value was -72 kcal/mol. The “ΔS (entropy)” value in experiment [5] is −220 cal/mol/deg.

In general, pKd refers to the Kd on a negative log10 scale, so that one unit is a factor of ten. A lower pKd goes with a high Kd.
